“Also recorded” adds a separate entry of the source. Where two headings read alike, the source gives them in different places.
How the values were obtained:
[1] = tested on: S180 sarcoma; assay: Photodynamic therapy study with mice with subcutaneous S180 sarcoma; type: in vivo, Kunming mice; details: for Pathological changes of tumour tissues (HE staining): 24 hours after the treatment; for Living tumour cells versus control group D (FCM) / Proportions of apoptotic and necrotic tumour cells versus control group D (FCM): 24 hours after treatments; for Mean tumour volume versus control group D: 21 days after the treatments, P<0.05; for Tumour appearance after treatment (eschars): after treatments; for Sizes of tumours versus control group D: six days after the treatments; for Tumour inhibition rate: tail vein: Duteroporphyrin 10 mg/kg, chlorin e4 sodium 20 mg/kg, 5-ALA 100 mg/kg, laser 20 minutes, 180 J/cm^2
Protocol: In this experiment the effects of photodynamic therapy mediated by three different photosensitizers, namely Duteroporphyrin, chlorin e4 sodium and 5-ALA, on mouse S180 sarcoma were observed. Duteroporphyrin and 5-ALA are porphyrin derivatives.
40 Kunming mice with well grown subcutaneous S180 sarcoma were randomly divided into four groups: (A) Duteroporphyrin group (10 mg/kg), (B) chlorin e4 sodium group (20 mg/kg), (C) 5-ALA group (100 mg/kg) and (D) blank control group. The mice in groups A and B were subjected to irradiation 8-10 hours after tail vein injection of the photo sensitizers, while the mice in group C were subjected to irradiation 3 hours after tail vein injection of the photosensitizer. A laser with a wavelength of 630 nm was used for groups A and C, while a duel-frequency laser with wavelengths of 660 nm and 760 nm was used for group B. The local tumour sites were irradiated vertically, with the diameter of the laser spots being 1.2-1.5 cm. The whole tumour and 3-5 mm of normal tissue around the tumour were covered by the laser. The lasers were applied to groups A, B and C for 20 minutes, with a power density of 150 mW/cm^2 and an energy density of 180 J/cm^2. The mice in control group D were not subjected to irradiation.

[2] = air-saturated water and ethanol; literature value of the reference; cited from earlier work
[3] = literature value of the reference, cited from earlier work
[4] = tested on: indomethacin-induced gastric lesions; details: rats; cited from earlier work
[5] = tested on: TAA- or CCl4-induced acute liver injuries; details: mice; cited from earlier work
[6] = tested on: advanced non-small cell lung cancer; assay: Clinical study with patients suffering from advanced non-small cell lung cancer; type: in vivo, human
Protocol: Through pathology or cytology diagnosis, 66 advanced non-small cell lung cancer patients were selected and randomly divided into two groups. Group A had 32 patients who were treated with chlorin e4 sodium. Group B had 34 patients who were treated with both chemotherapy and radiotherapy.
For group A, chlorin e4 sodium was administered at a dosage of 2 mg per kilogram of body weight, with two thirds administered by inhalation and one third administered orally. After the irradiation target(s) had been determined, an optical fibre for laser treatment purposes was guided into the lung tumor(s) via an interstitial procedure. Irradiation light intensity was 200 J/cm^2, irradiation power was 1,000 mW, and irradiation lasted for eight to ten minutes. Laser irradiation into the tumor was two to five centimeters in depth. Irradiation was either performed phase by phase (sub-paragraph treatment) based on tumor size or performed repeatedly.
For group B, for the radiotherapy, a 15 MV X-ray radiation therapy irradiation field covered primary lung tumor lesion(s) and mediastinal lymphatic drainage area, with a dosage of 65-70 Gy, administered on every first day in a week of radiotherapy. For the chemotherapy, 20 mg cisplatin was administered by intravenous application.

[7] = treatment of various human ailments; cited from earlier work
[8] = group A (32 patients): chlorin e4 sodium 2 mg/kg inhalation and oral + interstitial laser, group B (34 patients): cisplatin 20 mg iv + radiotherapy

Compound | Pathological changes of tumour tissues (HE staining) [1] | Living tumour cells versus control group D (FCM) [1] | Proportions of apoptotic and necrotic tumour cells versus control group D (FCM) [1] | Mean tumour volume versus control group D [1] | Tumour appearance after treatment (eschars) [1] | Sizes of tumours versus control group D [1] | Tumour inhibition rate [1] [%] | also measured
NCC(=O)CCC(=O)O [5-ALA] | a wide range of tumour necrosis, tumour vascular disruption and neutrophil infiltration | obviously fewer | a lot higher | statistically significantly smaller | thinner and brownish red in colour | no obvious difference | 37.2 | Recovery of skins and fur ([1]; after the eschars had fallen off): fully recovered; also recorded: fastest in skin repairing
CC1=Cc2cc3[nH]c(cc4nc(cc5[nH]c(cc1n2)cc5C)C(C)=C4CCC(=O)O)c(CCC(=O)O)c3C [Duteroporphyrin] | a wide range of tumour necrosis, tumour vascular disruption and neutrophil infiltration | obviously fewer | a lot higher | statistically significantly smaller | Black eschars | no obvious difference | 62.5 | Recovery of skins and fur ([1]; mouse, in vivo): fully recovered
O=S(=O)(O)c1ccc(-c2c3nc(c(-c4ccc(S(=O)(=O)O)cc4)c4ccc([nH]4)c(-c4ccc(S(=O)(=O)O)cc4)c4nc(c(-c5ccc(S(=O)(=O)O)cc5)c5ccc2[nH]5)C=C4)C=C3)cc1 [TPPS, m-tetrakis(p-sulfonatophenyl)porphine] | – | – | – | – | – | – | – | Fluorescence quantum yield [2]: 0.08; Quantum yield of singlet oxygen photogeneration ([3]; ethanol and detergent containing water): 0.7; Quantum yield of singlet oxygen photogeneration ([3]; water): 0.6
C=Cc1c(C)c2cc3nc(c(C)c4[nH]c(cc5nc(cc1[nH]2)C(C)=C5CC)c(C)c4C(=O)O)[C@@H](CCC(=O)O)[C@@H]3C [chlorin e4] | – | – | – | – | – | – | – | Effect against indomethacin-induced gastric lesions [4]: protective effect; Effect against TAA- or CCl4-induced acute liver injuries [5]: protective effect
N.N.[Cl][Pt][Cl] [cisplatin, reference compound] | – | – | – | – | – | – | – | One year survival rate [6, 8]: 70.60%; Two years survival rate [6, 8]: 32.35%; Combined complete and partial remission rate ([6]; group A: chlorin e4 sodium 2 mg/kg + interstitial laser, group B: cisplatin 20 mg iv + radiotherapy): 21.30%
tri-sodium copper(II) chlorin e6 | – | – | – | – | – | – | – | Toxicity and side effects [7]: no evidence of toxicity, skin sensitization or other serious side effects
